Target: Human TRPA1 (Homo sapiens, UniProt O75762)
Experiment: Assay 1: In vitro cellular testing of TRPA1 modulation (CHO-TREx, Fluo-3 calcium fluorescence, AITC agonist)
Type: cell-based
Set-up: expressed in transfected cells; host or cells: CHO-TREx cells (Invitrogen), vector pcDNA4/TO
Details: CHO-TREx cells expressing human TRPA1; Fluo-3 fluorescence (FLIPR/Tetra); agonist 15 μM allyl isothiocyanate (AITC); 30 minute antagonist incubation
Outline: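 Antagonist potency is the 50% reduction of the AITC (15 μM) calcium response, Hill-fitted against no-antagonist and 10 μM ruthenium red controls. Fluo-3-loaded (4 μM) CHO-TREx cells with tetracycline-inducible human TRPA1 got compound in HEPES saline pH 7.4 for 30 min, usually from 10 μM in three-fold dilutions.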

Chain of Human TRPA1 (O75762 whole entry): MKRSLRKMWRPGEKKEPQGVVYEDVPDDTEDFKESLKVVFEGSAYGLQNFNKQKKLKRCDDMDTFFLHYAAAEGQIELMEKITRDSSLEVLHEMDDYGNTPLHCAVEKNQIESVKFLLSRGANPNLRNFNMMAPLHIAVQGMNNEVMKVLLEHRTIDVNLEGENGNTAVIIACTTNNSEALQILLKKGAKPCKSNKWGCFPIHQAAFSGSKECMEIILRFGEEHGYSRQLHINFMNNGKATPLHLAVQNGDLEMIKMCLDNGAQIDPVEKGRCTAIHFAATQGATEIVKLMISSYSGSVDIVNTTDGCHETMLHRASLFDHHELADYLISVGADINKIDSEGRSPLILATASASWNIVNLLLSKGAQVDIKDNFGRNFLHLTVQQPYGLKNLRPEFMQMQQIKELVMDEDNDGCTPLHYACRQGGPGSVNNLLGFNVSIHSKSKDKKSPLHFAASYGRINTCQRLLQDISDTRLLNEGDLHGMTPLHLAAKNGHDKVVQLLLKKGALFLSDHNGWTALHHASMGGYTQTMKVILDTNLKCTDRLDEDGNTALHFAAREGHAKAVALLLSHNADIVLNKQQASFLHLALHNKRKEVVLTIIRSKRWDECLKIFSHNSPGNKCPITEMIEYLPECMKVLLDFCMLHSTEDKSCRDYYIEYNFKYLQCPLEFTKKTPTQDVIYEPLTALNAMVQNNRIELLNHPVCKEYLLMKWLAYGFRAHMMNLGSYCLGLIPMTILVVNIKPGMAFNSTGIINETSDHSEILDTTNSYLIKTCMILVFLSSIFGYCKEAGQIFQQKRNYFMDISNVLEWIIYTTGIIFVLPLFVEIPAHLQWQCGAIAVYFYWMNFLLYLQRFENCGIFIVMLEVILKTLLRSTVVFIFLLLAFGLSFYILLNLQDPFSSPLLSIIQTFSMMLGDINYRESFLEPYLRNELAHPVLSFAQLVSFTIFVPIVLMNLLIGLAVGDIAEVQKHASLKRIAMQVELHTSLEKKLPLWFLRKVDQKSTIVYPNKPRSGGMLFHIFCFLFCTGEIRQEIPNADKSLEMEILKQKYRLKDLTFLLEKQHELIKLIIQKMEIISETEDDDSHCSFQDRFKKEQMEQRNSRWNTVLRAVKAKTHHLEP

Row | IC50 | Compound
1 | 2 nM | O=C(NCc1cc(-c2ccc(C(F)(F)F)cc2)nc(N2CCC(Cc3ccccc3)CC2)n1)[C@@H]1CCCN1S(=O)(=O)c1ccc(F)cc1 [Example 189, 1-(4-Fluoro-benzenesulfonyl)-pyrrolidine-2S-carboxylic acid [2-(4-benzyl-piperidin-1-yl)-6-(4-trifluoromethyl-phenyl)-pyrimidin-4-ylmethyl]-amide]
2 | 85 nM | O=C(NCc1cc(-c2ccc(C(F)(F)F)cc2)nc(NC2CCCC2)n1)[C@@H]1CCCN1S(=O)(=O)c1ccc(F)cc1 [Example 193, 1-(4-Fluoro-benzenesulfonyl)-pyrrolidine-2S-carboxylic acid [2-cyclopentylamino-6-(4-trifluoromethyl-phenyl)-pyrimidin-4-ylmethyl]-amide]
3 | 16 nM | O=C(NCc1cc(-c2ccc(C(F)(F)F)cc2)nc(N2CCCC2)c1)[C@@H]1CCCN1S(=O)(=O)c1ccc(F)cc1 [Example 317, 1-(4-Fluoro-benzenesulfonyl)-pyrrolidine-S2-carboxylic acid [2-pyrrolidin-1-yl-6-(4-trifluoromethyl-phenyl)-pyridin-4-ylmethyl]-amide]
4 | 29 nM | O=C(NCc1cc(-c2ccc(C(F)(F)F)cc2)nc(N2CCCCC2)c1)[C@@H]1CCCN1S(=O)(=O)c1ccc(F)cc1 [Example 318, 1-(4-Fluoro-benzenesulfonyl)-pyrrolidine-S2-carboxylic acid [6′-(4-trifluoromethyl-phenyl)-3,4,5,6-tetrahydro-2H-[1,2′]bipyridinyl-4′-ylmethyl]-amide]
5 | 21 nM | O=C(NCc1cc(-c2ccc(C(F)(F)F)cc2)nc(N2CCCCC2)c1)[C@@H]1CCCN1S(=O)(=O)c1ccc(Cl)s1 [Example 319, 1-(5-Chloro-thiophene-2-sulfonyl)-pyrrolidine-S2-carboxylic acid [6′-(4-trifluoromethyl-phenyl)-3,4,5,6-tetrahydro-2H-[1,2′]bipyridinyl-4′-ylmethyl]-amide]
6 | 745 nM | O=C(NCc1cc(NCc2ccccc2)nc(-c2ccc(C(F)(F)F)cc2)c1)[C@@H]1C=CCN1S(=O)(=O)c1ccc(Cl)s1 [Example 320, (2S)—N-({2-(Benzylamino)-6-[4-(trifluoromethyl)phenyl]pyridin-4-yl}methyl)-1-[(5-chlorothiophen-2-yl)sulfonyl]-2,5-dihydro-1H-pyrrole-2-carboxamide]
7 | 1020 nM | O=C(NCc1cc(NCc2ccccc2)nc(-c2ccc(C(F)(F)F)cc2)c1)[C@@H]1C=CCN1S(=O)(=O)c1ccc(F)cc1 [Example 321, (2S)—N-({2-(Benzylamino)-6-[4-(trifluoromethyl)phenyl]pyridin-4-yl}methyl)-1-[(4-fluorophenyl)sulfonyl]-2,5-dihydro-1H-pyrrole-2-carboxamide]
8 | 1180 nM | O=C(NCc1cc(NCc2ccccc2)nc(-c2ccc(C(F)(F)F)cc2)c1)[C@@H]1CCCN1S(=O)(=O)c1ccc(F)cc1 [Example 322, N-({2-(Benzylamino)-6-[4-(trifluoromethyl)phenyl]pyridin-4-yl}methyl)-1-[(4-fluorophenyl)sulfonyl]-L-prolinamide]
9 | 510 nM | O=C(NCc1cc(NCc2ccccc2)nc(-c2ccc(C(F)(F)F)cc2)c1)[C@@H]1CCCN1S(=O)(=O)c1ccc(Cl)s1 [Example 323, N-({2-(Benzylamino)-6-[4-(trifluoromethyl)phenyl]pyridin-4-yl}methyl)-1-[(5-chlorothiophen-2-yl)sulfonyl]-L-prolinamide]
10 | 412 nM | O=C(NCc1cc(-c2ccc(C(F)(F)F)cc2)nc(N2CCN(c3ccccc3F)CC2)c1)[C@@H]1CCCN1S(=O)(=O)c1ccc(Cl)s1 [Example 324, 1-[(5-Chlorothiophen-2-yl)sulfonyl]-N-({2-[4-(2-fluorophenyl)piperazin-1-yl]-6-[4-(trifluoromethyl)phenyl]pyridin-4-yl}methyl)-L-prolinamide]
11 | 845 nM | O=C(NCc1cc(-c2ccc(C(F)(F)F)cc2)nc(N2CCN(c3ccccc3F)CC2)c1)[C@@H]1CCCN1S(=O)(=O)c1ccc(F)cc1 [Example 325, N-({2-[4-(2-Fluorophenyl)piperazin-1-yl]-6-[4-(trifluoromethyl)phenyl]pyridin-4-yl}methyl)-1-[(4-fluorophenyl)sulfonyl]-L-prolinamide]
12 | 5970 nM | O=C(NCc1cc(-c2ccc(C(F)(F)F)cc2)nc(N2CCN(c3ccccc3F)CC2)c1)[C@@H]1C=CCN1S(=O)(=O)c1ccc(F)cc1 [Example 326, (2S)—N-({2-[4-(2-Fluorophenyl)piperazin-1-yl]-6-[4-(trifluoromethyl)phenyl]pyridin-4-yl}methyl)-1-[(4-fluorophenyl)sulfonyl]-2,5-dihydro-1H-pyrrole-2-carboxamide]
13 | 587 nM | O=C(NCc1cc(-c2ccc(C(F)(F)F)cc2)nc(N2CCN(Cc3ccncc3)CC2)c1)[C@@H]1CCCN1S(=O)(=O)c1ccc(Cl)s1 [Example 327, 1-[(5-Chlorothiophen-2-yl)sulfonyl]-N-({2-[4-(pyridin-4-ylmethyl)piperazin-1-yl]-6-[4-(trifluoromethyl)phenyl]pyridin-4-yl}methyl)-L-prolinamide]
14 | 682 nM | O=C(NCc1cc(-c2ccc(C(F)(F)F)cc2)nc(N2CCN(Cc3cccnc3)CC2)c1)[C@@H]1CCCN1S(=O)(=O)c1ccc(F)cc1 [Example 328, 1-[(4-Fluorophenyl)sulfonyl]-N-({2-[4-(pyridin-3-ylmethyl)piperazin-1-yl]-6-[4-(trifluoromethyl)phenyl]pyridin-4-yl}methyl)-L-prolinamide]
15 | 1760 nM | O=C(NCc1cc(-c2ccc(C(F)(F)F)cc2)nc(N2CCN(Cc3ccncc3)CC2)c1)[C@@H]1C=CCN1S(=O)(=O)c1ccc(F)cc1 [Example 329, (2S)-1-[(4-Fluorophenyl)sulfonyl]-N-({2-[4-(pyridin-4-ylmethyl)piperazin-1-yl]-6-[4-(trifluoromethyl)phenyl]pyridin-4-yl}methyl)-2,5-dihydro-1H-pyrrole-2-carboxamide]
16 | 604 nM | O=C(NCc1cc(NCc2ccccn2)nc(-c2ccc(C(F)(F)F)cc2)c1)[C@@H]1C=CCN1S(=O)(=O)c1ccc(Cl)s1 [Example 330, (2S)-1-[(5-Chlorothiophen-2-yl)sulfonyl]-N-({2-[(pyridin-2-ylmethyl)amino]-6-[4-(trifluoromethyl)phenyl]pyridin-4-yl}methyl)-2,5-dihydro-1H-pyrrole-2-carboxamide]
17 | 176 nM | CN(C)c1cc(CNC(=O)[C@@H]2CCCN2S(=O)(=O)c2ccc(F)cc2)cc(-c2ccc(C(F)(F)F)cc2)n1 [Example 331, N-({2-(Dimethylamino)-6-[4-(trifluoromethyl)phenyl]pyridin-4-yl}methyl)-1-[(4-fluorophenyl)sulfonyl]-L-prolinamide]
18 | 58 nM | CN(C)c1cc(CNC(=O)[C@@H]2CCCN2S(=O)(=O)c2ccc(Cl)s2)cc(-c2ccc(C(F)(F)F)cc2)n1 [Example 332, 1-[(5-Chlorothiophen-2-yl)sulfonyl]-N-({2-(dimethylamino)-6-[4-(trifluoromethyl)phenyl]pyridin-4-yl}methyl)-L-prolinamide]
19 | 73 nM | CC1CCCN1c1cc(CNC(=O)[C@@H]2CCCN2S(=O)(=O)c2ccc(Cl)s2)cc(-c2ccc(C(F)(F)F)cc2)n1 (stereo partly drawn) [Example 333, 1-[(5-Chlorothiophen-2-yl)sulfonyl]-N-({2-(2-methylpyrrolidin-1-yl)-6-[4-(trifluoromethyl)phenyl]pyridin-4-yl}methyl)-L-prolinamide]
20 | 2630 nM | CN(C)c1cc(CNC(=O)[C@@H]2C=CCN2S(=O)(=O)c2ccc(Cl)s2)cc(-c2ccc(C(F)(F)F)cc2)n1 [Example 334, (2S)-1-[(5-Chlorothiophen-2-yl)sulfonyl]-N-({2-(dimethylamino)-6-[4-(trifluoromethyl)phenyl]pyridin-4-yl}methyl)-2,5-dihydro-1H-pyrrole-2-carboxamide]
21 | 179 nM | CNc1cc(CNC(=O)[C@@H]2CCCN2S(=O)(=O)c2ccc(Cl)s2)cc(-c2ccc(C(F)(F)F)cc2)n1 [Example 335, 1-[(5-Chlorothiophen-2-yl)sulfonyl]-N-({2-(methylamino)-6-[4-(trifluoromethyl)phenyl]pyridin-4-yl}methyl)-L-prolinamide]
22 | 113 nM | CC1CCCN1c1cc(CNC(=O)[C@@H]2CCCN2S(=O)(=O)c2ccc(F)cc2)cc(-c2ccc(C(F)(F)F)cc2)n1 (stereo partly drawn) [Example 336, 1-[(4-Fluorophenyl)sulfonyl]-N-({2-(2-methylpyrrolidin-1-yl)-6-[4-(trifluoromethyl)phenyl]pyridin-4-yl}methyl)-L-prolinamide]
23 | 1010 nM | CNc1cc(CNC(=O)[C@@H]2CCCN2S(=O)(=O)c2ccc(F)cc2)cc(-c2ccc(C(F)(F)F)cc2)n1 [Example 337, 1-[(4-Fluorophenyl)sulfonyl]-N-({2-(methylamino)-6-[4-(trifluoromethyl)phenyl]pyridin-4-yl}methyl)-L-prolinamide]
24 | 382 nM | CN(C)c1cc(CNC(=O)[C@@H]2C=CCN2S(=O)(=O)c2ccc(F)cc2)cc(-c2ccc(C(F)(F)F)cc2)n1 [Example 338, (2S)—N-({2-(Dimethylamino)-6-[4-(trifluoromethyl)phenyl]pyridin-4-yl}methyl)-1-[(4-fluorophenyl)sulfonyl]-2,5-dihydro-1H-pyrrole-2-carboxamide]
25 | 251 nM | O=C(NCc1cc(-c2ccc(C(F)(F)F)cc2)nc(N2CCN(Cc3ccccn3)CC2)c1)[C@@H]1CCCN1S(=O)(=O)c1ccc(Cl)s1 [Example 339, 1-[(5-Chlorothiophen-2-yl)sulfonyl]-N-({2-[4-(pyridin-2-ylmethyl)piperazin-1-yl]-6-[4-(trifluoromethyl)phenyl]pyridin-4-yl}methyl)-L-prolinamide]
